From patent publication US7538092B2, “Pharmaceutically active oligosaccharide conjugates” (Fresenius Kabi Deutschland GmbH, priority 2002, dated 2009)

Experiment: Determination of solubility in water / PBS
Format: physicochemical
Conditions: only using solution with extreme pH values

SMILES: C[C@@H]1[C@H](O)[C@@H](C)/C=C/C=C/C=C/C=C/C=C/C=C/C=C/[C@H](O[C@@H]2O[C@H](C)[C@@H](O)[C@H](N)[C@@H]2O)C[C@@H]2O[C@](O)(C[C@@H](O)C[C@@H](O)[C@H](O)CC[C@@H](O)C[C@@H](O)CC(=O)O[C@H]1C)C[C@H](O)[C@H]2C(=O)O [Amphotericin B]
- water solubility: around 0.1 mg per ml
